Laboratory results published in article PMC6753678, “Fueling Open Innovation for Malaria Transmission-Blocking Drugs: Hundreds of Molecules Targeting Early Parasite Mosquito Stages” (Frontiers in Microbiology, 2019).
pIC50: −log10 of the molar value. Where two headings read alike, the source gives them in different places.

How the values were obtained:
[1] = test system: HepG2 cells; settings: ref Almela et al 2016, cited from earlier work
[2] = test system: HepG2 cells; test: HepG2 cytotoxicity assay; settings: for pIC50: read-out: HepG2 cytotoxicity assay IC50, dose response confirmation
Procedure, shortened: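 Cells are plated at 2,500 per well on compound-treated plates in MEM containing 10% fetal bovine serum and 1% NEAA, then incubated 48 h at 37°C.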

[3] = test system: P. falciparum late stage (stages IV-V) gametocytes; test: P. falciparum late stage gametocyte ATP depletion assay (Pf GC-ATP); settings: 1: YES, 0: NO
[4] = test system: P. berghei ookinete development; settings: for Is compound selective in assay? Pb ODA active?: 1: YES, 0: NO; for % inhibition, Replicate A / % inhibition, Replicate B: primary screen at 1 μM
[5] = test system: 3D7-strain P. falciparum asexual parasites; test: P. falciparum asexual growth inhibition assay (Pf GIA); format: cell-based, Plasmodium falciparum; settings: dose response confirmation; read-out: Pf asexual growth inhibition assays IC50
Procedure, shortened: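 Steps: seed parasites (0.25% parasitemia, 2% hematocrit) onto compound dilutions; incubate 72 h at 37°C, 5% O2/5% CO2; freeze at −70°C and thaw; add LDH reaction mix, read A650 after 10 min. Percent growth inhibition derived from chloroquine and DMSO controls, averaged over three biological replicates.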

[6] = test system: P. falciparum late stage (stages IV-V) gametocytes; set-up: method as in Almela et al 2016; settings: ref Almela et al 2016, read-out: Pf GCT ATP IC50, cited from earlier work
[7] = HepG2 values of the three screens unified
[8] = read-out: Pb ODA IC50, this manuscript
[9] = read-out: Pb Ookinete development assay IC50, dose response confirmation
[10] = reported with the Pf GCT ATP screen
[11] = HepG2 cytotoxicity unified across screens, >25 set to 25.00
[12] = >10-fold selectivity over cytotoxicity
[13] = P. falciparum late stage gametocyte ATP assay, TCAMS screen

| SMILES | HepG2 cytoxicity (Pf GCT ATP screen) ([1]; HepG2) [µM] | HepG2 cytoxicity (Pb ODA, this manuscript) [2] [µM] | Unified cytotox [2, 7] [µM] | pIC50 [2] | Is compound selective in assay? Pf GC-ATP active? [3] | Is compound selective in assay? Pb ODA active? [4] | % inhibition, Replicate A [4] [%] | % inhibition, Replicate B [4] [%] | pIC50 [4, 8] | pIC50 [4, 9] | pIC50 [5] | pIC50 [6] | HepG2 cytoxicity [1, 10] [µM] | Unified cytotox [2, 11] [µM] | Is compound selective in assay? Pf GC-ATP active? [3, 12] | pIC50 [6, 13] | other results |
| --- | --- | --- | --- | --- | --- | --- | --- | --- | --- | --- | --- | --- | --- | --- | --- | --- | --- |
| CN1c2ccc([N+](=O)[O-])cc2C(C)(C)C12C=Cc1cc(Br)cc([N+](=O)[O-])c1O2 (stereo not shown) [TCMDC-124178] | >25 | 29.17 | 29.17 | 4.54 | 1 (1: YES) | 1 (1: YES) | 65.23 | 65.28 | 5.80 | 5.79 | 6.71 | 5.96 | – | – | – | – | – |
| Cl.Cl.c1ccc2c(NCCCCCCNc3c4ccccc4nc4ccccc34)c3ccccc3nc2c1 [TCMDC-124285] | 7 | 8.13 | 7.56 | 5.09 | 1 (1: YES) | 0 (0: NO) | 78.92 | 53.92 | 5.82 | 5.82 | 6.27 | 6.60 | – | – | – | – | – |
| COCCn1c(-c2cccc(Cl)c2)nn(-c2ccc([N+](=O)[O-])cc2C#N)c1=S [TCMDC-134719] | >25 | – | 100.00 | 4.00 | 1 (1: YES) | 1 (1: YES) | 64.09 | 78.69 | 5.74 | 5.73 | 6.39 | 5.56 | – | – | – | – | – |
| Cc1ccc(C)c(CC(=O)N2CCC(n3c(C)nc4ccc(F)cc43)CC2)c1 [TCMDC-124790] | >25 | 57.54 | 57.54 | 4.24 | 1 (1: YES) | 1 (1: YES) | 55.29 | 63.09 | 5.44 | 5.44 | 6.60 | 6.04 | – | – | – | – | – |
| Cc1cc(F)ccc1-c1nc(NCC(O)CNCCc2ccccc2)nc2c1ccc(=O)n2-c1c(F)cccc1F.O=C(O)C(F)(F)F (stereo not shown) [TCMDC-141784] | 8.47 | 14.79 | 11.63 | 4.83 | 1 (1: YES) | 0 (0: NO) | 54.07 | 33.72 | 5.41 | 5.41 | 6.35 | 6.64 | – | – | – | – | – |
| CC(C)c1ccc(NC(=S)NN=Cc2ccccn2)cc1 [TCMDC-125520] | – | – | – | – | 1 (1: YES) | – | – | – | – | – | – | – | – | – | – | – | HepG2 cytoxicity ([1]; HepG2 data listed with Pf GCT ATP screen): 12.8 µM; Unified cytotox ([2]; unified HepG2 value across the three screens): 12.80 µM; pIC50 ([6]; P. falciparum late stage gametocyte ATP assay): 8.00 |
| Nc1ncc(-c2ccc3nccc(-c4ccncc4)c3c2)cc1S(=O)(=O)N1CCCCC1 [TCMDC-134265] | – | – | – | – | – | – | – | – | – | – | – | – | >25 | 25.00 | 1 (1: YES) | 5.68 | – |
| COc1cc(NC(=O)c2sc(-c3ccc(Cl)cc3)cc2NC(=O)c2cccnc2)ccc1OCCN1CCCC1 [TCMDC-135397] | – | – | – | – | – | – | – | – | – | – | – | – | >25 | 25.00 | 1 (1: YES) | 6.21 | – |
| O=C(O)C(=O)O.Oc1c(CN2CCC(Cc3ccccc3)CC2)cc(Cl)c2cccnc12 [TCMDC-124594] | – | – | – | – | 1 (1: YES) | – | – | – | – | – | – | – | – | – | – | – | HepG2 cytoxicity (Pf GCT ATP screen) ([1]; HepG2 value reported with Pf GCT ATP screen): 9.6 µM; Unified cytotox ([2]; HepG2 cytotoxicity unified across screens, bounds (>) given as plain numbers): 9.60 µM; pIC50 ([6]; TCAMS library screen): 6.22 |
| CC(=NNC(=S)NCCc1ccccn1)c1ccccn1 [TCMDC-137895] | – | – | – | – | – | – | – | – | – | – | – | – | >25 | 25.00 | 1 (1: YES) | 5.83 | – |
